Measurements as given in patent publication US20240391870A1 (Arcturus Therapeutics, Inc., priority 2023, published 2024).
Like-named read-outs stand apart in the source and are kept apart here.

Experiments:
[1] = Lipid nanoparticle size, PDI and encapsulation; assay type: physicochemical; conditions: Table 3; for Size (nm): lipid nanoparticle; for EE %: lipid nanoparticle encapsulation
Experimental: In the context of nucleic acids, full encapsulation may be determined by performing a membrane-impermeable fluorescent dye exclusion assay, which uses a dye that has enhanced fluorescence when associated with nucleic acid. Encapsulation is determined by adding the dye to a lipid formulation, measuring the resulting fluorescence, and comparing it to the fluorescence observed upon addition of a small amount of nonionic detergent. Detergent-mediated disruption of the lipid layer releases the encapsulated nucleic acid, allowing it to interact with the membrane-impermeable dye. Nucleic acid encapsulation may be calculated as E=(I0−I)/I0, where I and I0 refer to the fluorescence intensities before and after the addition of detergent.

[2] = Measured pKa in the indicated formulation; conditions: for pKa: EPO: measured in EPO formulation
Experimental: Measured pKa values were determined based on the pH measured in the indicated formulation (i.e., EPO or FVII formulation).

[3] = Lipid nanoparticle size, PDI and encapsulation; assay type: physicochemical; conditions: Table 3
hEPO = hEPO mRNA expression evaluation (hEPO-LNPs); assay type: in vivo, Balb/c mice; conditions: serum hEPO after 6 hr; for EPO exprssn (ng/mL) 0.03 mpk: 0.03 mpk i.v.; for EPO exprssn (ng/mL) 0.1 mpk: 0.1 mpk i.v.
factor VII = test: Factor VII knock down evaluation (LNP with FVII siRNA); assay type: in vivo, Balb/C mice; conditions: plasma FVII after 48 h vs saline control; for FVII KD % 0.01 mpk: 0.01 mpk i.v.; for FVII KD % 0.03 mpk: 0.03 mpk i.v.
Outline: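 Female Balb/C mice, 7–8 weeks old, received FVII siRNA lipid nanoparticles intravenously at 0.03 or 0.01 mg/kg. Plasma was collected 48 h later and FVII protein measured by chromogenic assay at 405 nm against a control plasma calibration curve. Levels are relative to saline-treated controls.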

Mouse plasma stability = assay type: in vitro ADME, CD-1 mouse; conditions: 1 uM lipid
Outline: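 Lipid at 1 μM starting concentration incubated in stirred CD-1 mouse plasma (sodium heparin) at 37° C.; samples at 0–120 min quenched with acetonitrile/methanol plus internal standard. LC-MS peak area relative to T=0 gave % remaining; T1/2 from first-order decay.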

[4] = In vivo biodegradability assay (lipid in liver); conditions: mouse liver, 48 h

Compound	Size (nm) [1] [nm]	EE % [1] [%]	PDI [3]	EPO exprssn (ng/mL) 0.1 mpk (hEPO; Table 2) [ng/mL]	FVII KD % 0.01 mpk (factor VII; Table 2) [%]	FVII KD % 0.03 mpk (factor VII; Table 2) [%]	pKa ([2]; EPO formulation)	pKa: EPO ([2]; Table 2)	Percent remaining in mouse plasma after 2 h (Mouse plasma stability; Table 1, mouse plasma 37 C) [%]	Percent remaining in mouse plasma after 2 h (Mouse plasma stability; Table 2, mouse plasma 37 C) [%]	In vivo degradability (ng/tissue) at 48h 0.03 mpk ([4]; Table 1)	In vivo degradability (ng/tissue) at 48h 0.1 mpk ([4]; Table 1)	In vivo degradability (ng/tissue) at 48h 0.03 mpk ([4]; Table 2)	In vivo degradability (ng/tissue) at 48h 0.1 mpk ([4]; Table 2)	also measured
CC1CCC(CCC(=O)OCC(C)(COC(=O)CCC2CCC(C)CC2)COC(=O)CCN(CCC(=O)OCC(C)(COC(=O)CCC2CCC(C)CC2)COC(=O)CCC2CCC(C)CC2)C(=O)N(C)CCCN(C)C)CC1 (stereo not drawn) [Lipid 48, (((3,3′-((((3-dimethylamino)propyl)methylcarbamoyl)azanediyl)bis(propanoyl))bis(oxy))bis(methylene))bis(2-methylpropane-2,1,3-triyl)tetrakis(3-(4-methylcyclohexyl)propanoate)]	103.2	96.2	0.065	–	–	–	–	–	–	–	–	–	–	–	pKa [2]: 7.18
CC1CCC(CCC(=O)OCC(C)(COC(=O)CCC2CCC(C)CC2)COC(=O)CCN(CCC(=O)OCC(C)(COC(=O)CCC2CCC(C)CC2)COC(=O)CCC2CCC(C)CC2)C(=O)NCCCN(C)C)CC1 (stereo not drawn) [Lipid 47, (((3,3′-((((3-dimethylamino)propyl)carbamoyl)azanediyl)bis(propanoyl))bis(oxy))bis(methylene))bis(2-methylpropane-2,1,3-triyl)tetrakis(3-(4-methylcyclohexyl)propanoate)]	98.26	98.9	0.089	–	–	–	–	–	–	–	–	–	–	–	–
CN(C)CCCSC(=O)N(CCCC(=O)OC(COC(=O)CCc1ccc(-c2ccccc2)cc1)COC(=O)CCc1ccc(-c2ccccc2)cc1)CCCC(=O)OC(COC(=O)CCc1ccc(-c2ccccc2)cc1)COC(=O)CCc1ccc(-c2ccccc2)cc1 [Lipid 42, ((4,4′-((((3-(dimethylamino)propyl)thio)carbonyl)azanediyl)bis(butanoyl))bis(oxy))bis(propane-2,1,3-triyl)tetrakis(3-([1,1′-biphenyl]-4-yl)propanoate)]	100.4	88.2	0.086	–	–	–	–	–	–	–	–	–	–	–	–
CN(C)CCCSC(=O)N(CCCC(=O)OC(COC(=O)CCc1ccc2ccccc2c1)COC(=O)CCc1ccc2ccccc2c1)CCCC(=O)OC(COC(=O)CCc1ccc2ccccc2c1)COC(=O)CCc1ccc2ccccc2c1 [Lipid 44, ((4,4′-((((3-(dimethylamino)propyl)thio)carbonyl)azanediyl)bis(butanoyl))bis(oxy))bis(propane-2,1,3-triyl)tetrakis(3-(naphthalen-2-yl)propanoate)]	113.1	85.7	0.134	–	–	–	–	–	–	–	–	–	–	–	–
CCCCCCCC(=O)OCC(COC(=O)CCCCCCC)OC(=O)CCCC(CCCC(=O)OC(COC(=O)CCCCCCC)COC(=O)CCCCCCC)SC(=O)CCCN(C)C [LIPID 4, bis(1,3-bis(Octanoyloxy)propan-2-yl) 5-((4-(dimethylamino)butanoyl)thio)nonanedioate]	–	–	–	1108	71	33	6.22	(6.22/ND)	13	13	BLOQ	BLOQ	BLOQ	BLOQ	EPO exprssn (ng/mL) 0.03 mpk (hEPO; Table 1): 392 ng/mL; EPO exprssn (ng/mL) 0.1 mpk (hEPO; Table 1): 1108 ng/mL; EPO exprssn (ng/mL) 0.03 mpk (hEPO; Table 2): 392 ng/mL; FVII KD % 0.01 mpk (factor VII; Table 1): 71%; FVII KD % 0.03 mpk (factor VII; Table 1): 33%
CC1CCC(CC(=O)OCC(COC(=O)CC2CCC(C)CC2)OC(=O)CCCN(CCCC(=O)OC(COC(=O)CC2CCC(C)CC2)COC(=O)CC2CCC(C)CC2)C(=O)SCCCN(C)C)CC1 (stereo not drawn) [LIPID 15, ((4,4′-((((3-(Dimethylamino)propyl)thio)carbonyl)azanediyl)bis(butanoyl))bis(oxy))bis(propane-2,1,3-triyl)tetrakis(2-(4-methylcyclohexyl)acetate)]	–	–	–	1899	66.8	89.7	6.57	6.57	256	100	<340 ng/tissue	<340 ng/tissue	<340 ng/tissue	<340 ng/tissue	pKa ([2]; FVII formulation): 6.45; pKa: FVII ([2]; Table 2, measured in FVII formulation): 6.45
